Test results: patent publication US20140073637A1, “AMINO-SUBSTITUTED-ALKYLOXY-BENZO[E]PYRIDO[4,3-B]INDOLE DERIVATIVES AS NEW POTENT KINASE INHIBITORS” (INSTITUT CURIE, priority 2011, published 2014)
Like-named read-outs stand apart in the source and are kept apart here.

Assays:
Aurora B = Aurora B (Homo sapiens, UniProt Q96GD4); experiment: Aurora B inhibition in cells: Histone H3 Ser10 phosphorylation by western blotting and immunofluorescence; assay type: cell-based; design: endogenous in cells; host or cells: U2OS (human osteosarcoma); HeLa also used for the maleate salts; key to Aurora B inhibition: +++: very efficient inhibition; −: no inhibition; conditions: for Aurora B inhibition: cells, Histone H3 Ser10 phosphorylation, western blotting and immunofluorescence, compounds 1 μM; for Aurora B kinase inhibition of maleate salts (in words): U2OS and HeLa cells, 1 μM overnight with Nocodazole, immunoblotting (FIG. 11)
Aurora B, sequence (Q96GD4 whole entry): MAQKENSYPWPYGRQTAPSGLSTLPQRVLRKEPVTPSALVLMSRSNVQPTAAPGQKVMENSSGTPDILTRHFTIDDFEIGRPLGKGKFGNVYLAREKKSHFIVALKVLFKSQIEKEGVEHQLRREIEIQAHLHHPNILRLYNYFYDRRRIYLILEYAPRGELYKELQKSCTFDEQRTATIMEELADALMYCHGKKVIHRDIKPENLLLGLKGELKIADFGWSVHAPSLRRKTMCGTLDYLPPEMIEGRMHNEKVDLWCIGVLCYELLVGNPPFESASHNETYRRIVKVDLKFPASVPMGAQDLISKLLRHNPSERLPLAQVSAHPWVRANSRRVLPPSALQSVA
Procedure: Actin is used as control of quantity. Cells were incubated overnight in the presence of either C1, or C2 or CH21 or C14 or DMSO(C: control). All compounds were tested at 1 μM. Proteins were detected by western blotting.
Cells were incubated with the different molecules and Aurora B inhibition is estimated by western blotting (WB) and immuno fluorescent experiments. Histone H3 phosphorylated on Ser10 is used as a marker of Aurora B kinase activity and actin as an internal control. Each WB signal is compared to the control in the absence of compound. The efficiency estimated by WB is indicated by +++: very efficient inhibition to −: no inhibition. Immunofluorescent labelling of a mitotic cell by Histone H3 illustrates Aurora B kinase activity. However immunofluorescence is less sensitive than WB. Active molecules are underlined by a square and the intensity of the line indicates the efficiency of inhibition.
FIG. 10A: Immunofluorescence with phospho-Ser10-Histone H3 antibodies. Either the percentage of positive phospho-Ser10-Histone H3 is indicated or a representative mitosis shown. […] Immunofluorescent assays were realized with a specific phospho-antibody and mitotic U2OS cells are recognized by their DNA content stained with Hoechst. On the right, a representative cell or the percentage of H3-S10-P labelled mitosis.
(§1) FIG. 10B: Immunoblotting analysis of histone H3 phosphorylation. U2OS cells were incubated overnight with Nocodazole (50 nM) in the presence of either DMSO (Co) or Compounds (1 μM). Cells were then collected and lyzed. Identical amounts of the lyzed cell samples were run on 18% acrylamide gel containing SDS.
as §1, with “FIGS. 11B and 11C:” for “FIG. 10B:”, “U2OS and HeLa” for “U2OS”
Cells were incubated with the different molecules and Aurora B inhibition is estimated by western blotting and immunofluorescent experiments. Histone H3 phosphorylated on Ser10 is used as a marker of Aurora B kinase activity and actin as an internal control. Results are represented in FIGS. 4 and 10 and Table 3.
(§2) Cells were treated by compounds, harvested and lyzed in 9M urea then supplemented with Laemmli sample buffer. Cell extracts were subjected to SDS-PAGE and transferred to nitrocellulose filter (GE Healthcare). After blocking with 5% non-fat milk in PBS for at least 1 hour, the membranes were incubated with the primary antibodies. The following antibodies were used: phospho-Histone H3 Ser10 (1:2000, Upstate Biotechnology), anti LAST1 (Cell signalling), anti Aurora B (epitomics) and anti alpha-tubulin (Sigma) Anti-rabbit horseradish peroxidase (1:5000, GE Healthcare) was used as secondary antibodies. Bands were visualized by ECL technique (Amersham Bioscience).
Cells were seeded on glass coverslips and treated by compounds (1 μM) overnight. After treatment, cells were fixed in 4% formaldhehyde at 37° C. for 15 minutes, then permeabilized for 5 minutes with Triton X-100 in PBS.

HeLa cells = experiment: Cell viability / antiproliferative assay; assay type: cell-based; conditions: HeLa cells, average of three independent experiments, concentration that induced 50% death, read-out: IC50 (in nM), antiproliferative assay
From the text: Antiproliferative assays with HeLa cells have been performed with the preferred compounds and compared to the C1 and C2. The average of three independent experiments is shown. IC50 obtained with C1 and C2 were previously reported in Hoang et al, 2009, and are indicated for comparison. The lateral chain of each molecule is recalled, knowing that all the molecules have an oxo group at position 11. IC50 are indicated, i.e. the concentration that induced 50% death.
H358, H322 (lung cancer cells), U373 (glioblastomes) and HeLa ([…]) were grown in DMEM (1.5 g/L glucose) whereas HL60 (human myeloid cell line) cells were in RPMI 1640. U2OS (a human osteosarcoma cell line) cells were cultured in McCoy's Medium 5 A and liver cells (SK Hep 1) in DMEM (4 g/L glucose, (Gibco-Invitrogen). Media (Gibco-Invitrogen), were supplemented with 10% heat-inactivated foetal bovine serum (Gibco-Invitrogen), L-glutamine (2 mM), penicillin (100 UI/ml) and streptomycin (100 μg/ml).
Cell proliferation assays were conducted in 96 well culture plates. Assays were run in triplicate. Cell viability was estimated upon 72 h of treatment with varying concentrations of compound by addition of CellTiter 96Queous one Solution Reagent (Promega) directly to culture wells under conditions defined by the manufacturer.

NUAK1 [1] = target: T1, NUAK1 (Homo sapiens, UniProt O60285); experiment: In vitro IC50 on recombinant kinase; assay type: biochemical
T1 construct: Reaction biology Corp (USA), service
T1 sequence (O60285 1-661): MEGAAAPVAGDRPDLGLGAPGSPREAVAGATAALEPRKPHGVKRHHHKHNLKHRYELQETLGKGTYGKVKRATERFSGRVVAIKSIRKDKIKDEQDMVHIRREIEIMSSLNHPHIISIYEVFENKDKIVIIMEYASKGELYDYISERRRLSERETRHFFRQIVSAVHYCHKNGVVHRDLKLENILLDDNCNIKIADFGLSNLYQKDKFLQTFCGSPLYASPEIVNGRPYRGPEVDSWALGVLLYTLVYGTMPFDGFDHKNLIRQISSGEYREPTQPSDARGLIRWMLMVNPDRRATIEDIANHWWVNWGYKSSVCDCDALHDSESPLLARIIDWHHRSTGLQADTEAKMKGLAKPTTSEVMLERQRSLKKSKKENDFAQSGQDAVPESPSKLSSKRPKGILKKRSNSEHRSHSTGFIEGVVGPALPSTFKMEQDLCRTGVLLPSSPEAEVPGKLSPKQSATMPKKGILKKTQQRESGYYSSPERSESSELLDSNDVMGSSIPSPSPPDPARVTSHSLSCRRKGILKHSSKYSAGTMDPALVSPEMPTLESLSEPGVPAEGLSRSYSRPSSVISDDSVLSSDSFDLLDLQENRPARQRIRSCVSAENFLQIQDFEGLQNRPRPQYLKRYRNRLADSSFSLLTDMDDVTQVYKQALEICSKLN
Procedure: The efficiency of the 3-amino-ethoxy compounds to inhibit Nuak1 was determined in vitro.
The profiling was performed at the MRC (Dundee University), in duplicate, on a set of 121 kinases. The panel is representative of the major different classes of kinases. Compounds were used at the concentration of 1 μM. In vitro, IC50 were determined on recombinant kinases by Reaction biology Corp (USA).

NUAK1 [2] = target: T1, NUAK1; experiment: Nuak1 inhibition in cellulo: LATS1 stabilization by western blot; assay type: cell-based; conditions: HeLa cells treated ON; whole cell extracts, WB, compared to control
Procedure: HeLa cells were treated ON by C21 (also named CH21) and C14M and compared to the control (C0). Whole cell extracts were analyzed by WB with anti LATS1 monoclonal antibody and the loading was quantified through the tubulin signal.
Therefore the possibility of inhibiting Nuakl, in cellulo, was evaluated through the stabilization of the Large Antigen Tumour Suppressor LATS1.
as §2

Row | Compound | Aurora B inhibition (Aurora B) | also measured
1 | Cc1cnc(Cl)c2c1[nH]c1ccc3cc(OCCN4CCOCC4)ccc3c12 [Compound C05, 11-Chloro-3-(2-(morpholin-4-yl)ethoxy)-8-methyl-7H-benzo[e]pyrido(4,3-b)indole] | − | 
2 | Cc1c[nH]c(=O)c2c1[nH]c1ccc3cc(OCCN4CCOCC4)ccc3c12 [Compound C07, 3-(2-(Morpholin-4-yl)ethoxy)-8-methyl-7H,10H-benzo[e]pyrido(4,3-b)indol-11-one] | +++ | IC50 (HeLa cells): 107 ± 12 nM; IC50 (NUAK1 [1]): 1.6 nM
3 | Cc1c[nH]c(=O)c2c1[nH]c1ccc3cc(OCCN4CCOCC4)ccc3c12 [Compound C07M, 3-(2-(Morpholin-4-yl)ethoxy)-8-methyl-7H,10H-benzo[e]pyrido(4,3-b)indol-11-one] |  | IC50 (HeLa cells): 287 ± 32 nM; Aurora B kinase inhibition of maleate salts (in words) (Aurora B): maintained
4 | COc1ccc2c(c1)CCc1[nH]c3c(C)c[nH]c(=O)c3c1-2 [Compound C11, reference compound] | − | 
5 | COc1ncc(C)c2[nH]c3ccc4cc(OCCN(C)C)ccc4c3c12 [Compound C12, 11-Methoxy-3-(2-N,N-dimethylaminoethoxy)-8-methyl-7H-benzo[e]pyrido(4,3-b)indole] | − | 
6 | Cc1c[nH]c(=O)c2c1[nH]c1ccc3cc(OCCN(C)C)ccc3c12 [Compound C14M, 3-(2-N,N-Dimethylaminoethoxy)-8-methyl-7H,10H-benzo[e]pyrido(4,3-b)indol-11-one] |  | IC50 (HeLa cells): 114 ± 82 nM; LATS1 protein level (in words) (NUAK1 [2]): large increase; Aurora B kinase inhibition of maleate salts (in words) (Aurora B): maintained
7 | Cc1cncc2c1[nH]c1ccc3cc(OCCCN(C)C)ccc3c12 [Compound C23, 3-(3-N,N-dimethylaminopropoxy)-8-methyl-7H-benzo[e]pyrido(4,3-b)indole] | − | 
8 | CCc1cnc(Cl)c2c1[nH]c1ccc3cc(OCCN(C)C)ccc3c12 [Compound C40, 11-Chloro-3-(2-N,N-dimethylaminoethoxy)-8-ethyl-7H-benzo[e]pyrido(4,3-b)indole] | − | 
9 | CCc1c[nH]c(=O)c2c1[nH]c1ccc3cc(OCCN(C)C)ccc3c12 [Compound C48, 3-(2-N,N-dimethylaminoethoxy)-8-ethyl-7H,11H-benzo[e]pyrido(4,3-b)indol-11-one] | +++ | IC50 (HeLa cells; Homo sapiens, HeLa): 53 ± 3 nM; IC50 (NUAK1 [1]): 5.7 nM
10 | CCc1c[nH]c(=O)c2c1[nH]c1ccc3cc(OCCN(C)C)ccc3c12 [Compound C48M, 3-(2-N,N-dimethylaminoethoxy)-8-ethyl-7H,11H-benzo[e]pyrido(4,3-b)indol-11-one] |  | IC50 (HeLa cells): 63 ± 17 nM; Aurora B kinase inhibition of maleate salts (in words) (Aurora B): maintained
11 | COCCOc1ccc2c(ccc3[nH]c4c(C)cnc(Cl)c4c32)c1 [Compound C708, 11-Chloro-3-(2-methoxyethoxy)-8-methyl-7H-benzo[e]pyrido(4,3-b)indole] | − | 
12 | Cc1cnc(Cl)c2c1[nH]c1ccc3cc(OCCN4CCCCC4)ccc3c12 [Compound C709, 11-Chloro-3-(2-(piperidin-1-yl)ethoxy)-8-methyl-7H-benzo[e]pyrido(4,3-b)indole] | − | 
13 | Cc1c[nH]c(=O)c2c1[nH]c1ccc3cc(OCCN4CCCCC4)ccc3c12 [Compound C710, 3-(2-(Piperidin-1-yl)ethoxy)-8-methyl-7H,10H-benzo[e]pyrido(4,3-b)indol-11-one] | +++ | 
14 | COCCOc1ccc2c(ccc3[nH]c4c(C)c[nH]c(=O)c4c32)c1 [Compound C711, 3-(2-Methoxyethoxy)-8-methyl-7H,10H-benzo[e]pyrido(4,3-b)indol-11-one] | − | 
